Experimental findings from patent US7259239B2, “Lipopolysaccharide α-2,3 sialyltransferase of campylobacter jejuni and its uses” (priority 1998, dated 2007) are described below.

The target in series [1] is C. jejuni α-2,3-sialyltransferase (CST-06, MBP-fusion protein of the full length sialyltransferase) (Campylobacter jejuni, UniProt Q9RGF1). Nature of the series: Acceptor specificity and kinetics on p-nitrophenyl-glycosides with malE-cst (CST-06). Type of series: biochemical. Conditions: p-NP-glycoside acceptor at 2.0 mM; for Relative Activity (CST-06): acceptor with lowest activity given the value 1. As for the experimental part:
(§1) Kinetic analysis of acceptors was performed at 37° C. with p-NP-glycosides at concentrations of 0.1 to 10 mM, with CMP-Neu5Ac at 1 mM. Kinetic analysis of the donor CMP-Neu5Ac was performed at a concentration of 20 μM to 1000 μM with p-NP-lactose at 5 mM. Care was taken to ensure that the level of acceptor conversion was between about 5-10% for acceptor kinetic assays.
(§2) For donor kinetics the amount of conversion of CMP-Neu5Ac was calculated from the amount of product formed compared to an internal standard of 10 μM p-NP-glucose added after the reaction. This peak was well resolved from the acceptor and product peaks. The reactions with p-NP-glycosides were stopped by addition of an equal volume of 2% SDS, 20 mM EDTA and heated to 75° C. for 3 minutes and then diluted 1:1 (or maximally 1:10 for 10 mM concentrations) with water. The samples were then analyzed by CE using a diode array detector scanning between 260 and 300 nm, with the peaks at detected at 290 nm. The peaks from the electropherograms were analyzed using manual peak integration with the P/ACE Station™ software. For rapid detection of enzyme activity, samples from the transferase reaction mixtures were examined by thin layer chromatography on silica-60 TLC plates (E. Merck) as described in Gilbert et al. (1996) supra.
(§3) The acceptor specificity of the C. jejuni α-2,3-sialyltransferase was examined with a panel of p-NP-glycosides having both β1→4 and β1→3 linkages. The kinetic data for all of the acceptors was collected using the MBP-fusion protein of the full length sialyltransferase. The data for the acceptor specificity were collected first by assaying the enzyme at an acceptor concentration of 2.0 mM. The acceptor with the lowest activity was given the value of 1 for the comparison of activity. These reaction conditions were used in a comparison (Table 3) of the C. jejuni enzyme with the Lst protein from N. meningitidis (Gilbert et al. (1996) J. Biol. Chem. 271: 28271-28276). The N. meningitidis Lst protein was also a MBP protein fusion which was soluble and purified by affinity chromatography.

The target in series [2] is T1, Lst protein from N. meningitidis (NST-33, MBP protein fusion) (Neisseria meningitidis serogroup B, UniProt P72097).
T1 construct: made in house
T1 sequence (P72097 whole entry, the tested form may be a part): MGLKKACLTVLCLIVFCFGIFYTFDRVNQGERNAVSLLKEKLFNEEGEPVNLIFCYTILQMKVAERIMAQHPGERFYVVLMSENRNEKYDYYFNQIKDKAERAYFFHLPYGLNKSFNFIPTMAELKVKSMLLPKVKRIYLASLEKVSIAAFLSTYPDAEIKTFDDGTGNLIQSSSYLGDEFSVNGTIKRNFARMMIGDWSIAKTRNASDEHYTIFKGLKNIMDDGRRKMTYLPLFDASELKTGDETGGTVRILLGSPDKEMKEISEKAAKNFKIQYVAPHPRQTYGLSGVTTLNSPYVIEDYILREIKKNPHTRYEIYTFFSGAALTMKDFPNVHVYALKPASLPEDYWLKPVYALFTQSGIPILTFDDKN
Type of series: biochemical. To be noted: p-NP-glycoside acceptor at 2.0 mM; for Relative Activity (NST-33): acceptor with lowest activity given the value 1. The procedure:
as §2, §3

The test system of series [3] is CC(=O)N[C@H]1[C@@H](Oc2ccc([N+](=O)[O-])cc2)O[C@H](CO)[C@H](O)[C@@H]1O[C@@H]1O[C@H](CO)[C@H](O)[C@H](O)[C@H]1O. Nature of the series: Acceptor specificity and kinetics on p-nitrophenyl-glycosides with malE-cst (CST-06). Type of series: biochemical, Campylobacter jejuni. Conditions: other: 37° C., p-NP-glycosides 0.1 to 10 mM, CMP-Neu5Ac 1 mM. The procedure: as §1, §2, §3

For series [4], the system named is CC(=O)N[C@H]1[C@H](Oc2ccc([N+](=O)[O-])cc2)O[C@H](CO)[C@@H](O[C@@H]2O[C@H](CO)[C@H](O)[C@H](O)[C@H]2O)[C@@H]1O. The description is as above. Type of series: biochemical, Campylobacter jejuni. Conditions: other: 37° C., p-NP-glycosides 0.1 to 10 mM, CMP-Neu5Ac 1 mM. As for the experimental part:
as §1, §2, §3

Series [5] has as its system [H][C@@]1(O[C@H]2[C@H](O)[C@@H](O)[C@H](Oc3ccc([N+](=O)[O-])cc3)O[C@@H]2CO)O[C@H](CO)[C@H](O)[C@H](O)[C@H]1O. Described as above. Type of series: biochemical, Campylobacter jejuni. To be noted: other: 37° C., p-NP-glycosides 0.1 to 10 mM, CMP-Neu5Ac 1 mM. The procedure:
as §1, §2, §3

C. jejuni α-2,3-sialyltransferase (CST-06, MBP-fusion protein of the full length sialyltransferase), sequence (Q9RGF1 entry or part of it): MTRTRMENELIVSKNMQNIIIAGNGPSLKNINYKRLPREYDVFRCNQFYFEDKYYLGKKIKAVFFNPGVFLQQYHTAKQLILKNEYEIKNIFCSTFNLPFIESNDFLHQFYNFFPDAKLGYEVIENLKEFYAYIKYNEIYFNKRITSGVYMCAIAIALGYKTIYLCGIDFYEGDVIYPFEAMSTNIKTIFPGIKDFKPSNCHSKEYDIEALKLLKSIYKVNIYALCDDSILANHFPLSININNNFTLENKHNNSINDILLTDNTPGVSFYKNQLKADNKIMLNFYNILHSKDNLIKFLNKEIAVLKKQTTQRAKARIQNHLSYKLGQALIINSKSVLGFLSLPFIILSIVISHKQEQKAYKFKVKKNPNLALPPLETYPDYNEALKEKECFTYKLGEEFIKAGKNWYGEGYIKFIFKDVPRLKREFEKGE

For `O=[N+]([O-])c1ccc(OC2OC(CO)C(OC3OC(CO)C(OC4OC(CO)C(O)C(O)C4O)C(O)C3O)C(O)C2O)cc1` (stereo not drawn) [Gal-α-1,4-Gal-β-Glc], the “Relative Activity (CST-06)” value in series [1] was determined as 0. Moreover, in series [2], the “Relative Activity (NST-33)” value came to 5.6.
For `O=[N+]([O-])c1ccc(O[C@@H]2O[C@H](CO)[C@@H](O[C@@H]3O[C@H](CO)[C@H](O)[C@H](O)[C@H]3O)[C@H](O)[C@H]2O)cc1` [Gal-β-1,4-Glc], in series [1], the “Enzyme activity mU/mg (CST-06)” value is recorded as “mU/mg = 420” and the “Relative Activity (CST-06)” value turned out to be 4.9. In series [2], the “Enzyme activity mU/mg (NST-33)” value is reported as “mU/mg = 30” and the “Relative Activity (NST-33)” value was determined as 7.8.
`O=[N+]([O-])c1ccc(O[C@@H]2O[C@H](CO)[C@H](O)[C@H](O)[C@H]2O)cc1` [Gal-β]: in series [1], the “Relative Activity (CST-06)” value stood at 1. Further, in series [2], the “Relative Activity (NST-33)” value was 1.2.
As to “C. jejuni α-2,3-sialyltransferase (CST-06, MBP-fusion protein of the full length sialyltransferase) (Campylobacter jejuni)”, the Km in series [3] is listed as 2.7 mM ± 0.1 mM; in series [4], 0.8 mM ± 0.2 mM; in series [5], 1.3 mM ± 0.12 mM.
